Source: US20200239530A1, “COMPOUNDS AND METHODS OF MODULATING PROTEIN DEGRADATION” (Vividion Therapeutics, Inc., priority 2017, published 2020)

How the values were obtained:
Experiment in all cases: Cysteine liganding, probe competition
Assay type in all cases: binding
[1] = molecular target: T1, CDK17 Cyclin-dependent kinase 17 (Homo sapiens, UniProt Q00537); conditions: for Liganded: CDK17 Res# 233, uniprot Q00537
T1 construct: 200 μL of lysate containing 5 mg/ml proteome was treated with 2 μL of 100× compound stock; endogenous in cells
T1 sequence (Q00537 whole entry): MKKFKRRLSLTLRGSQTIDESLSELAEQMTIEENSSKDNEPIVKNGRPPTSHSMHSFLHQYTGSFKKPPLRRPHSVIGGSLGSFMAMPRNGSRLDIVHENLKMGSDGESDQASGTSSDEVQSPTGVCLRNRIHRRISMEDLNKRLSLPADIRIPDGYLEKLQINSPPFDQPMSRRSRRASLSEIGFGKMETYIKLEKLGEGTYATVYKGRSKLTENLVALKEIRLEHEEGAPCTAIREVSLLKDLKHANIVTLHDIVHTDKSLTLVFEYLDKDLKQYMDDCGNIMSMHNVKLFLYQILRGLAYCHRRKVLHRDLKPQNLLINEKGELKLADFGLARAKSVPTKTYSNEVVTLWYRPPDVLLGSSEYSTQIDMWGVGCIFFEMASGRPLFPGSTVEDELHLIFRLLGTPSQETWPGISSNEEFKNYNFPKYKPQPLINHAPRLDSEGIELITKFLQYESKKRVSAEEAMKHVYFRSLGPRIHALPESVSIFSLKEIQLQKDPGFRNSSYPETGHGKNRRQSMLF
Method in brief: (§1)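 Probe competition in native proteome: 5 mg/ml lysate, compound 1 hr 25° C, then desthiobiotin iodoacetamide (10 mM stock) 1 hr 25° C; acetone ppt, urea/DTT reduction, iodoacetamide alkylation, trypsin, streptavidin pull-down.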

[2] = molecular target: T2, NEK9 Serine/threonine-protein kinase Nek9 (Homo sapiens, UniProt Q8TD19)
T2 construct: Cells were resuspended in cold PBS on ice and sonicated with a probe sonicator to achieve lysis; endogenous in cells
T2 sequence (Q8TD19 1-979): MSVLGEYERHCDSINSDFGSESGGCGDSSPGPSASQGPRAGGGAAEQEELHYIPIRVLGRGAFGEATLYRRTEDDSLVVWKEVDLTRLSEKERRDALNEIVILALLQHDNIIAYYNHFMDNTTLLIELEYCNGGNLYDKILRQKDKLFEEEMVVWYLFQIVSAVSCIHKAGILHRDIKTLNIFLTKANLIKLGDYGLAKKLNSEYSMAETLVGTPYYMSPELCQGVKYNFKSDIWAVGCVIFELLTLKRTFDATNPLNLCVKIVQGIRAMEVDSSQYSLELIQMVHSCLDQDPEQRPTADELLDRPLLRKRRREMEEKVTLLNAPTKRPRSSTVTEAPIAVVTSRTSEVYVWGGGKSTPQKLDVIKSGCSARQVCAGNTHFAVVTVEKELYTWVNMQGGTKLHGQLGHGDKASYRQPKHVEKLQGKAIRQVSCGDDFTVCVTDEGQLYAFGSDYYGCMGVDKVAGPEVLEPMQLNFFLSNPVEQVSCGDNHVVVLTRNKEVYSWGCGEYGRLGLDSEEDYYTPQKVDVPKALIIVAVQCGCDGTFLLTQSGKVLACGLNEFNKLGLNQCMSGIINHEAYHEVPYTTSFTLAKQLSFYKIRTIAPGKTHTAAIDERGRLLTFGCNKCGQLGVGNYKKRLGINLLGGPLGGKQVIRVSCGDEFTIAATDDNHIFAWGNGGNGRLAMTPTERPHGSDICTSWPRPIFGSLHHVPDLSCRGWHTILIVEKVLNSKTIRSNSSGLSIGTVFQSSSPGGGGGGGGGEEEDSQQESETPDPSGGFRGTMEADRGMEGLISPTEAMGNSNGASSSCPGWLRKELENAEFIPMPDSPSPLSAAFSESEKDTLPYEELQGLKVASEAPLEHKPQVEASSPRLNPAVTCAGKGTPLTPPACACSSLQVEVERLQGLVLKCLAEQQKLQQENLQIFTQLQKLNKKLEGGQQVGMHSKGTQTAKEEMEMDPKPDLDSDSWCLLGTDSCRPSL
Method in brief: as §1

[3] = molecular target: T3, DDX60 Probable ATP-dependent RNA helicase DDX60 (Homo sapiens, UniProt Q8IY21)
T3 construct: 200 μL of lysate containing 5 mg/ml proteome was treated with 2 μL of 100× compound stock; endogenous in cells
T3 sequence (Q8IY21 whole entry): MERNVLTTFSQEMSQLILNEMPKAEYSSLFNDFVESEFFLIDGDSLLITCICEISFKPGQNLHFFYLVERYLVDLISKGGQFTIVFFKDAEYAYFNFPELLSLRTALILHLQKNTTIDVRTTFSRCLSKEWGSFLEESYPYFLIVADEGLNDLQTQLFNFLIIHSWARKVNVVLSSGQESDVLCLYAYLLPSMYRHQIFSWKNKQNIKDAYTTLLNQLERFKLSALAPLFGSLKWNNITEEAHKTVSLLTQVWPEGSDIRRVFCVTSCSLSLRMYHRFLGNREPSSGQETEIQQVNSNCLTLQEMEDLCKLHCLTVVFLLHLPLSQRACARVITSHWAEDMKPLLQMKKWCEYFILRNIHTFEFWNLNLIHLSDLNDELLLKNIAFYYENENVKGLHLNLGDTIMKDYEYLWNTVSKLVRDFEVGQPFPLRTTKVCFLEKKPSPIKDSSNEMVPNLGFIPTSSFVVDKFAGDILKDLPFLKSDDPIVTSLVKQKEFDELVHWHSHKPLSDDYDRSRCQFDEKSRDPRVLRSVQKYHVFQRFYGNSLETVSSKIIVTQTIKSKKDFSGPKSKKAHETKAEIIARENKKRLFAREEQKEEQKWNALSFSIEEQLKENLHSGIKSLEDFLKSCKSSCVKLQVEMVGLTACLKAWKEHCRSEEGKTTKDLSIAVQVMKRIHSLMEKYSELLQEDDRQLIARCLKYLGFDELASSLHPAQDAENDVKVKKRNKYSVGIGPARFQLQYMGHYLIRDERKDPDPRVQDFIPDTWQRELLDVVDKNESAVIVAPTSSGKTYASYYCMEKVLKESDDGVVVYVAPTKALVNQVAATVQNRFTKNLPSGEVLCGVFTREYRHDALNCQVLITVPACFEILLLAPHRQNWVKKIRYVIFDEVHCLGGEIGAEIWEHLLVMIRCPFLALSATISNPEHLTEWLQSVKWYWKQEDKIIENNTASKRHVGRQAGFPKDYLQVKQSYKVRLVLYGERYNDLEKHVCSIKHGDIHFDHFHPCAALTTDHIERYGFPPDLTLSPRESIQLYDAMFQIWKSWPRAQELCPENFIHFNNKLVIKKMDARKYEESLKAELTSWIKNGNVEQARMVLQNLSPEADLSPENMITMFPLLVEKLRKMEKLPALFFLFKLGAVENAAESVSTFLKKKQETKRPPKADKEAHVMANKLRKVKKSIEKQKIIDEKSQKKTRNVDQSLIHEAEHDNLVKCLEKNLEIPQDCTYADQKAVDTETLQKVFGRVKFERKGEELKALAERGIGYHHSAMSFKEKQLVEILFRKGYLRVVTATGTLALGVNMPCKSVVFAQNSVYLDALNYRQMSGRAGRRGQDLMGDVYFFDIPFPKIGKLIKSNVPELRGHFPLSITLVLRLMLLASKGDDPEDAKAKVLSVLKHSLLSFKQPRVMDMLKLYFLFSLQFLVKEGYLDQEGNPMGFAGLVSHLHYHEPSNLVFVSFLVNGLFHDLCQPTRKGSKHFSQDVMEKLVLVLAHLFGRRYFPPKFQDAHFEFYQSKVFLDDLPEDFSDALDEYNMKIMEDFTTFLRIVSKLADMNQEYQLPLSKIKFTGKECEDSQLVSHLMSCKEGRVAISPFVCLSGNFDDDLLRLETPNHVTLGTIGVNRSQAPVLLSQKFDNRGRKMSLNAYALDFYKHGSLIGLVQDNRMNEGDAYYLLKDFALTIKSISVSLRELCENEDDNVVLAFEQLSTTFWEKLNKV
Method in brief: as §1

[4] = molecular target: T4, PDCD11 Protein RRP5 homolog (Homo sapiens, UniProt Q14690)
T4 construct: Cells were resuspended in cold PBS on ice and sonicated with a probe sonicator to achieve lysis; endogenous in cells
T4 sequence (Q14690 whole entry): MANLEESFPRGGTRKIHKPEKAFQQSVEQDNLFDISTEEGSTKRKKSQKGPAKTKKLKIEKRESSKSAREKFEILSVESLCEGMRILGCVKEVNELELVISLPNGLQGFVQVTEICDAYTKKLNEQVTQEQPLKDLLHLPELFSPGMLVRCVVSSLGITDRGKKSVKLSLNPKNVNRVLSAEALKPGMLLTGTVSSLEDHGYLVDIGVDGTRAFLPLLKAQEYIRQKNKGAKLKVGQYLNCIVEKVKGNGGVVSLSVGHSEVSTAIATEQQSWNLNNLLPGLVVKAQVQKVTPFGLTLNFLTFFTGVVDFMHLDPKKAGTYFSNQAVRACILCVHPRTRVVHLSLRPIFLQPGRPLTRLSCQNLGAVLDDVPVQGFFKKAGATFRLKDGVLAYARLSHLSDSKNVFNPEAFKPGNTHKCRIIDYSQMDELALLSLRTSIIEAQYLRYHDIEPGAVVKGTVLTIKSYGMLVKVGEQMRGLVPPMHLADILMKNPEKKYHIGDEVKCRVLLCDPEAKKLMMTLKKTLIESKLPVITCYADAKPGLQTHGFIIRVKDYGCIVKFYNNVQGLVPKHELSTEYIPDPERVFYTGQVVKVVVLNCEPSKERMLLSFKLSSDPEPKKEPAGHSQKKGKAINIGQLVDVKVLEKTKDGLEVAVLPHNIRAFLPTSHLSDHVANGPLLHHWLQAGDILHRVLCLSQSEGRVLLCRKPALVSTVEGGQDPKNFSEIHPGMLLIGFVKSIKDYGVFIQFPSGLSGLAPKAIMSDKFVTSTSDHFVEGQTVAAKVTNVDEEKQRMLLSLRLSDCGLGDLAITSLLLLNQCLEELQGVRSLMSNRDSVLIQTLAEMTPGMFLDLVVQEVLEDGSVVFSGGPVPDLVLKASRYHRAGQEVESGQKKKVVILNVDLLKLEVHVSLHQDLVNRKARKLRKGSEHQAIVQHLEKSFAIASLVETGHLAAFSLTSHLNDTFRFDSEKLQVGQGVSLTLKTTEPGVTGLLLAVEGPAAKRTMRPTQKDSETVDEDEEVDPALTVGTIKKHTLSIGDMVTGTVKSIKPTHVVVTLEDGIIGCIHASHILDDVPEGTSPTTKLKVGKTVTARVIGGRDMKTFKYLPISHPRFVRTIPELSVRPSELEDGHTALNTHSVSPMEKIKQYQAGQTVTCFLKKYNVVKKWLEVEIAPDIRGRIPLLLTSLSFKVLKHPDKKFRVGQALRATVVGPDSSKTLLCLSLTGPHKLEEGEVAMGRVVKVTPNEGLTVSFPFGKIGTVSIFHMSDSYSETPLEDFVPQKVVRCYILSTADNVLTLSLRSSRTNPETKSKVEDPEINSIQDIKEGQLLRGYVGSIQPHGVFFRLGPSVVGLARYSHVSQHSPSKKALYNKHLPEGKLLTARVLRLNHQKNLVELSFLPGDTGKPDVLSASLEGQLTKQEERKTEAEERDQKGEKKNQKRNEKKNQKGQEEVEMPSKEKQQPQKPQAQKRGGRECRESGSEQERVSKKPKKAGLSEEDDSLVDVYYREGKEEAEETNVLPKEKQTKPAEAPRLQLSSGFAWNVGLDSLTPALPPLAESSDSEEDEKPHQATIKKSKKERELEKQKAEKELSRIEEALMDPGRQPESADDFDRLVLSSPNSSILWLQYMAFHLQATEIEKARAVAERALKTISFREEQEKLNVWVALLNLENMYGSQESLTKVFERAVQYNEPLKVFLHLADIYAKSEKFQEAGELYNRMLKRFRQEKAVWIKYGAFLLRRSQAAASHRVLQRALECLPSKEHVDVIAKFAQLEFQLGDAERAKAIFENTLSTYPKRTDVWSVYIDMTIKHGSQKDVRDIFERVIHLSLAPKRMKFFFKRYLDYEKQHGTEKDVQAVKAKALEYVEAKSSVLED
Method in brief: as §1

SMILES | Liganded [1] | Liganded ([2]; NEK9 Res# 260, uniprot Q8TD19) | Liganded ([3]; DDX60 Res# 1051, uniprot Q8IY21) | Liganded ([4]; PDCD11 Res# 361, uniprot Q14690) | 100 Max ([1]; uniprot Q00537) | 100 ave ([1]; uniprot Q00537) | 500 ave ([1]; uniprot Q00537) | 500 Max ([1]; uniprot Q00537, in % (unit assumed)) | 100 Max ([2]; uniprot Q8TD19) | 100 ave ([2]; uniprot Q8TD19) | 500 Max ([2]; uniprot Q8TD19) | 500 ave ([2]; uniprot Q8TD19) | 100 Max ([3]; uniprot Q8IY21) | 100 ave ([3]; uniprot Q8IY21) | 500 Max ([3]; uniprot Q8IY21) | 500 ave ([3]; uniprot Q8IY21) | 100 Max ([4]; uniprot Q14690) | 100 ave ([4]; uniprot Q14690) | 500 ave ([4]; uniprot Q14690) | 500 Max ([4]; uniprot Q14690, in % (unit assumed))
COc1ccc2c(c1)CCCN2C(=O)CCl [KB02] | YES | YES | YES | YES |  |  |  |  |  |  |  |  |  |  |  |  |  |  |  | 
O=C(CCl)Nc1cc(C(F)(F)F)cc(C(F)(F)F)c1 [KBO3] | YES |  |  |  | 50.67 | 28.2075 | 79.225 | 80.44 | 9.47 | 9.47 | 56.18 | 56.18 | 29.56 | 19.7 | 73.07 | 73.07 | 19.85 | 3.78 | 46.645 | 49.26
